According to patent US20200157563A1, “METHODS OF PRODUCING HUMAN CANCER CELL MODELS AND METHODS OF USE” (The Broad Institute, Inc., priority 2017, published 2020):
Where “and” joins values, the source holds several entries; their conditions need not be identical. Equal values may be shown once.

Tested on: TERT promoter or exon 1
Test: Efficiency of tested Cas9 guide sequences (indel formation after RNP delivery)
Type: cell-based, human
Conditions: 3 days post-editing; Cas9 guide targeting TERT promoter or exon 1; replicates 1 and 2 listed separately
Protocol: Guide sequences for all genes were determined by empirically testing multiple guides per gene for cutting efficiency (on the extreme end, we tested around 40 Cas9 guide sequences for TERT before settling on one that works).
Applicants also determined guide RNAs for introducing indels at the TERT gene (FIG. 12).
Mutations were first engineered into CDKN2A (‘C’), BRAF (‘B’), and TERT (‘T’) (FIGS. 19A-19G). Lesions in these three genes happen early in melanoma pathogenesis and are exceptionally common, co-occurring events (Akbani et al. Cell 161:1681-1696 (2015)) that have been hypothesized to suffice for malignant transformation (Shain et al. Nat Rev Cancer 16:345-358 (2016); Shain et al. N Engl J Med 373:1926-1936 (2015)). After electroporation of Cas9 ribonucleoprotein complex (RNP) (Rimm et al. Am J Pathol 154:325-329 (1999)) targeting CDKN2A exon 2, the only exon shared by both p16 and p14 protein products, small insertions and deletions (‘indels’) in the gene underwent natural positive selection during cell culture from a 90-95% allele frequency at day three to nearly 100% by day 42 (FIG. 19A). Into these CDKN2A knockout (‘C’) melanocytes, Applicants next introduced the BRAF V600E mutation by co-delivering Cas9 RNP targeting BRAF exon 15 together with a homologous DNA donor encoding the V600E mutation. Recombinant adeno-associated virus (rAAV) was used to deliver the DNA donor (Rimm et al. Am J Pathol 154:325-329 (1999)) in order to increase the low editing efficiency over plasmid or single-stranded oligodeoxynucleotide donors (data not shown; Dever et al. Nature 539:384-389 (2016)). Over roughly 150 days in culture, the BRAF V600E allele increased from a frequency of 6% at day 3 to nearly 100% at day 155 (FIG. 19B). Finally, into these CDKN2A knockout, BRAF V600E mutant (‘CB’) melanocytes, Applicants introduced the −124C>T (also known as C228T) TERT promoter mutation by co-delivery of Cas9 RNP targeting TERT exon 1 together with a homologous DNA donor encoding TERT −124C>T. The −124C>T TERT promoter mutation allele shifted from a stable allele frequency of 3-5% over the first 30 days in culture to roughly 50% by day 75, and stayed at roughly 50% for more than 300 days of continuous culture (FIG. 19C; this 50% frequency is further discussed below). Engineering the TERT promoter mutation was the most technically difficult of these three mutations, and required testing forty different Cas9 guide sequences to identify a potent reagent for making double stranded breaks near the TERT promoter locus (Table 9), possibly due to the high G:C content or closed chromatin state at this locus (Yeh et al. Nat Commun 8:644 (2017)).
Cas9 protein, tracrRNA, and crRNAs (‘guides’, Table 20) were purchased and prepared according to manufacturer's instructions (IDT). To generate RNP complexes, 3-6 μg Cas9 and 45 pmol previously annealed crRNA:trRNA were incubated together for 10 minutes at 25° C. before delivery by electroporation. To target CDKN2A, two crRNAs were mixed at a molar ratio of 1:1 (22.5 pmol crRNA 1: 22.5 pmol crRNA 2) and incubated with 3 μg Cas9.
Electroporation was performed using the Lonza Nucleofector 4D System (program: EO-208) and P3 Primary Cell Nucleofector Kit (Lonza), according to manufacturer's instructions, with optional inclusion of 100 pmol electroporation enhancer (IDT 1075916). After electroporation, cells were incubated with 80 μL of warm media for 10 minutes at 37° C. to enhance recovery and were directly transferred into a tissue culture plate.
DNA was extracted using QuickExtract DNA Extraction Solution following recommended guidelines (Epicentre). Target genomic loci were amplified using gene-specific primers (Table 21) that included universal handles for later attachment of barcoded Illumina adaptors using an additional round of PCR. […]

| Substance | % Indel Post-Editing |
| --- | --- |
| 17 (guide GAAACTCGCGCCGCGAGGAG; chemistry not given here) [compound 17] | 0.03391% and 0.163% |
| 6 (guide GGGAGGGCCCGGAGGGGGCT; chemistry not given here) [compound 6] | 0.3562% and 0.3112% |
| 34 (guide GCGGTAGTGGCTGCGCAGCA; chemistry not given here) [compound 34] | 27.04% and 29.27% |
| 3 (guide TCCCCGGCCCAGCCCCCTCC; chemistry not given here) [compound 3] | 0.2836% and 0.473% |
| 27 (guide TGGCCAGCGGCAGCACCTCG; chemistry not given here) [compound 27] | 13.61% and 13.93% |
| 37 (guide GGGAGCGCACGGCTCGGCAG; chemistry not given here) [compound 37] | 5.208% and 5.478% |
| 23 (guide GCCGCGGAAAGGAAGGGGAG; chemistry not given here) [compound 23] | 0.7353% and 0.8087% |
| 19 (guide TGCCTGAAACTCGCGCCGCG; chemistry not given here) [compound 19] | 0.3096% and 0.2587% |
| 5 (guide GGGCTGGGAGGGCCCGGAGG; chemistry not given here) [compound 5] | 0.3738% and 0.4065% |
| 28 (guide GGGGAGCGCGCGGCATCGCG; chemistry not given here) [compound 28] | 1.175% and 1.846% |
| 22 (guide GGCGGGGCCGCGGAAAGGAA; chemistry not given here) [compound 22] | 1.212% and 0.3044% |
| 29 (guide GCTGCGCAGCAGGGAGCGCA; chemistry not given here) [compound 29] | 0.5165% and 0.5841% |
| 2 (guide GTCCCCGGCCCAGCCCCCTC; chemistry not given here) [compound 2] | 0.29% and 0.6087% |
| 1 (guide TGGGAGGGCCCGGAGGGGGC; chemistry not given here) [compound 1] | 0.1686% and 0.2057% |
| 36 (guide GCGGCAGCACCTCGCGGTAG; chemistry not given here) [compound 36] | 2.113% and 1.684% |
| 21 (guide AAACTCGCGCCGCGAGGAGA; chemistry not given here) [compound 21] | 0.5362% and 0.5957% |

| Substance | % Indel Post-Editing |
| --- | --- |
| 39 (guide GAGCGCACGGCTCGGCAGCG; chemistry not given here) [compound 39] | 6.049% and 7.137% |
| 24 (guide GGGCCGCGGAAAGGAAGGGG; chemistry not given here) [compound 24] | 0.19% and 0.2632% |
| 26 (guide GCTGCGCAGCCACTACCGCG; chemistry not given here) [compound 26] | 9.609% and 9.23% |
| 31 (guide CCACGTTCGTGCGGCGCCTG; chemistry not given here) [compound 31] | 3.555% and 3.026% |
| 40 (guide GCTCGGCAGCGGGGAGCGCG; chemistry not given here) [compound 40] | 14.09% and 12.53% |
| 18 (guide GCCCCTCCCCTTCCTTTCCG; chemistry not given here) [compound 18] | 2.299% and 1.045% |
| 20 (guide GCGGGGCCGCGGAAAGGAAG; chemistry not given here) [compound 20] | 0.1376% and 0.1734% |
| 4 (guide GGGGCTGGGAGGGCCCGGAG; chemistry not given here) [compound 4] | 0.2787% and 0.05972% |
| 7 (guide GAGGGGCTGGGAGGGCCCGG; chemistry not given here) [compound 7] | 0.2257% and 0.1728% |
| 35 (guide CTACCGCGAGGTGCTGCCGC; chemistry not given here) [compound 35] | 1.038% and 1.547% |
| 25 (guide GGAAAGGAAGGGGAGGGGCT; chemistry not given here) [compound 25] | 0.6945% and 1.088% |
| 16 (guide GGCCGCGGAAAGGAAGGGGA; chemistry not given here) [compound 16] | 0.1942% and 0.09556% |
| 33 (guide CGCCGCACGAACGTGGCCAG; chemistry not given here) [compound 33] | 2.925% and 2.489% |
| 32 (guide TGCCGCTGGCCACGTTCGTG; chemistry not given here) [compound 32] | 0.1665% and 0.1061% |
| 38 (guide GGAGCGCACGGCTCGGCAGC; chemistry not given here) [compound 38] | 0.8353% and 1.797% |

Same assay, conditions: 5 days post-editing; Cas9 guide targeting TERT promoter or exon 1; replicates 1 and 2 listed separately

| Substance | % Indel Post-Editing |
| --- | --- |
| 12 (guide GCCGGGGACCCGGGAGGGGT; chemistry not given here) [compound 12] | 0.1682% and 0.08339% |
| 14 (guide CGCCCCGTCCCGACCCCTCC; chemistry not given here) [compound 14] | 0.04851% and 0.09263% |
| 11 (guide CTGGGCCGGGGACCCGGGAG; chemistry not given here) [compound 11] | 0.2288% and 0.2733% |
| 15 (guide GCCCCGTCCCGACCCCTCCC; chemistry not given here) [compound 15] | 0.375% |
| 9 (guide GGCTGGGCCGGGGACCCGGG; chemistry not given here) [compound 9] | 0.5674% and 0.398% |
| 13 (guide CCGGGGACCCGGGAGGGGTC; chemistry not given here) [compound 13] | 0.06603% and 0.05525% |
| 10 (guide GCTGGGCCGGGGACCCGGGA; chemistry not given here) [compound 10] | 0.3155% and 0.389% |
| 8 (guide GGGGGCTGGGCCGGGGACCC; chemistry not given here) [compound 8] | 0.1929% and 0.225% |
